In US11040981B2, “Pyrrolotriazine compounds and methods of inhibiting TAM kinases” (Syros Pharmaceuticals, Inc., priority 2017, dated 2021) one finds IC50 data, which are given here for 34 molecules.

Assay [1] concerns the target T1, FLT3 (Homo sapiens, UniProt P36888).
T1 sequence (P36888 27-993): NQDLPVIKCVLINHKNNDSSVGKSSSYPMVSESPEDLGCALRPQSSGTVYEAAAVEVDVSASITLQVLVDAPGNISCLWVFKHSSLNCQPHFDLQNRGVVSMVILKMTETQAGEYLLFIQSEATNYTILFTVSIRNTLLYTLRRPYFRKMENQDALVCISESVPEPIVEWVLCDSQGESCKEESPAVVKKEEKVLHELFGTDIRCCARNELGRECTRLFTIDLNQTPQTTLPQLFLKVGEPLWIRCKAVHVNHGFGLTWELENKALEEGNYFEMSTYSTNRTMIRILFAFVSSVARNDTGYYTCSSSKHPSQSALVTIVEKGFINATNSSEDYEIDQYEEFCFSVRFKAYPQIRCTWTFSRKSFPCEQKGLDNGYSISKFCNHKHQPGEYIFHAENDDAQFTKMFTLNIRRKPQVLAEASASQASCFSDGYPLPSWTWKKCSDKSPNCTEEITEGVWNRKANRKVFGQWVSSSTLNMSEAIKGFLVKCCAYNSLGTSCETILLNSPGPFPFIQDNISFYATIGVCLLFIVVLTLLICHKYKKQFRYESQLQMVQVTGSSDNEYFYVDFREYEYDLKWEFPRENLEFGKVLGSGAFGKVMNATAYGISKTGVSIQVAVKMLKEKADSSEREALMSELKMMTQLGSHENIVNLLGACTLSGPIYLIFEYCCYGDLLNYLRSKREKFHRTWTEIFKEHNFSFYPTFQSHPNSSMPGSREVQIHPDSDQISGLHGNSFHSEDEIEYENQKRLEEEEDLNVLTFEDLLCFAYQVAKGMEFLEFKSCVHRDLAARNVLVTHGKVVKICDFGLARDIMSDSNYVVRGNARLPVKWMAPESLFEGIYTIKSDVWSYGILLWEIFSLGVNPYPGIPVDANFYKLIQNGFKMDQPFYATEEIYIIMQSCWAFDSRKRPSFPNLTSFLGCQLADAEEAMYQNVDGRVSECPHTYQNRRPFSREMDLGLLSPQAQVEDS
As to the kind of experiment: TR-FRET kinase activity assay, FLT3. The conditions noted are these: ATP at Km, 60 minutes. It is filed as biochemical. The procedure, abridged: (§1)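 Compounds were tested against each kinase with ATP set at its own Km and a labelled tyrosine peptide substrate. Following one hour at room temperature in buffer containing 10 mM MgCl2 and 1 mM DTT, phosphorylated product was detected by Europium antibody TR-FRET after EDTA quench, and IC50 values were calculated.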
Background: Time-resolved FRET reads energy transfer from a long-lived donor to a nearby acceptor.

Assay [2] has as its target T2, TYRO3 (Homo sapiens, UniProt Q06418).
T2 sequence (Q06418 41-890): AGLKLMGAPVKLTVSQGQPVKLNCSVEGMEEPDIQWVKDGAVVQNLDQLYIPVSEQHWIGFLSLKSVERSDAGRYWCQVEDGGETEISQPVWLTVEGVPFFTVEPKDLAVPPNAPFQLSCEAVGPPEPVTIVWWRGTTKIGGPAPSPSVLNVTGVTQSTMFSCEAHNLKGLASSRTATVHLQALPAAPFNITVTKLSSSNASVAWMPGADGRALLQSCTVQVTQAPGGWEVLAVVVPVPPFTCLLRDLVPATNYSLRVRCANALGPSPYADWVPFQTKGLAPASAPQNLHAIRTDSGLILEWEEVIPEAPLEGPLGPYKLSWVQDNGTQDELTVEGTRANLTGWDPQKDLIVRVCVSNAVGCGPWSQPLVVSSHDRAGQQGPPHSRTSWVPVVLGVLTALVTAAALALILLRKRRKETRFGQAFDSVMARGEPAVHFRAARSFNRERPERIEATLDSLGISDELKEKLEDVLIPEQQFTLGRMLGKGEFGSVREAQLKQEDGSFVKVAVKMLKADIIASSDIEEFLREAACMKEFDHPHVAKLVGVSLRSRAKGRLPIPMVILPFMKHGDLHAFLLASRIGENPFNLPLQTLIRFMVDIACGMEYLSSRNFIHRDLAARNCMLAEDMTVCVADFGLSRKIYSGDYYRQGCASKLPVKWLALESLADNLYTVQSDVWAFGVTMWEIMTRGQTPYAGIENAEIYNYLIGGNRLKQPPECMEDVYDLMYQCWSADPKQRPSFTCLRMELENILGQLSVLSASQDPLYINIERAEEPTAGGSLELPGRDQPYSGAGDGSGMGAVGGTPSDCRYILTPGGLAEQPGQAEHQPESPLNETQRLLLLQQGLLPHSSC
Kind of assay: TR-FRET kinase activity assay, TYRO3. Format: biochemical. The conditions noted are these: ATP at Km, 60 minutes. In short, it runs like this: as §1

Broadly, the IC50 is the concentration that inhibits the measured activity by half. Regarding `COC[C@H](C)Nc1ncc2c(-c3ccnc(OC4CCN(C)CC4)c3)cc([C@H]3CC[C@H](O)CC3)n2n1` [Compound 342], the half-maximal inhibitory concentration (IC50) is 100 to 1000 nM in assay [1] and at most 100 nM in assay [2].
On the same counts, the results for `COC[C@H](C)Nc1ncc2c(-c3cnn(C4CC(S(C)(=O)=O)C4)c3)cc([C@H]3CC[C@H](O)CC3)n2n1` (some centres unmarked) [Compound 287] are at most 100 nM and at most 100 nM.
On the same counts, the results for `CNC(=O)c1cc(-c2cc([C@H]3CC[C@H](O)CC3)n3nc(N[C@@H](C)COC)ncc23)cc(C)n1` [Compound 335] are 1000 to 10000 nM and at most 100 nM.
On the same counts, the results for `CNC(=O)c1cncc(-c2cc([C@H]3CC[C@H](O)CC3)n3nc(N[C@@H](C)CC(F)(F)F)ncc23)c1` [Compound 304] are 1000 to 10000 nM and at most 100 nM.
On to `COC[C@H](C)Nc1ncc2c(-c3cc(C)nc(C)c3)cc([C@H]3CC[C@H](O)CC3)n2n1` [Compound 308], for which the results for the half-maximal inhibitory concentration (IC50) in assay [1] and in assay [2] were 1000 to 10000 nM and at most 100 nM, respectively.
On to `COC[C@H](C)Nc1ncc2c(-c3cnn(CC4CNC(=O)C4)c3)cc([C@H]3CC[C@H](O)CC3)n2n1` (some centres unmarked) [Compound 303], for which the values for the half-inhibitory concentration (IC50) in assay [1] and in assay [2] were 100 to 1000 nM and at most 100 nM, respectively.
On the same counts, the results for `COC[C@H](C)Nc1ncc2c(-c3ccnc(N4CCNC(=O)C4)c3)cc([C@H]3CC[C@H](O)CC3)n2n1` [Compound 340] are 100 to 1000 nM and at most 100 nM.
Take `COC[C@H](C)Nc1ncc2c(-c3ccnc(OC(C)C)c3)cc([C@H]3CC[C@H](O)CC3)n2n1` [Compound 343]: the values for the half-inhibitory concentration (IC50) in assay [1] and in assay [2] were 1000 to 10000 nM and at most 100 nM, respectively.
Turning to `COC[C@H](C)Nc1ncc2c(-c3ccnc(N4CCN(C(C)=O)CC4)c3)cc([C@H]3CC[C@H](O)CC3)n2n1` [Compound 344], the IC50 was 100 to 1000 nM in assay [1] and at most 100 nM in assay [2].
`COC[C@H](C)Nc1ncc2c(-c3ccnc(N4CCN(S(C)(=O)=O)CC4)c3)cc([C@H]3CC[C@H](O)CC3)n2n1` [Compound 338]: the half-inhibitory concentration (IC50) in assay [1] is 100 to 1000 nM; in assay [2], at most 100 nM.
Regarding `COC[C@H](C)Nc1ncc2c(-c3cnn(C4CCS(=O)(=O)CC4)c3)cc([C@H]3CC[C@H](O)CC3)n2n1` [Compound 323], the values for the IC50 in assay [1] and in assay [2] were 100 to 1000 nM and at most 100 nM, respectively.
For `CNS(=O)(=O)c1ccc(-c2cc([C@H]3CC[C@H](O)CC3)n3nc(N[C@@H](C)COC)ncc23)cn1` [Compound 336], the IC50 in assay [1] was 100 to 1000 nM; in assay [2], at most 100 nM.
For `Cc1nnc(Cn2cc(-c3cc([C@H]4CC[C@H](O)CC4)n4nc(N[C@@H](C)COC(F)F)ncc34)cn2)o1` [Compound 312], in that order: at most 100 nM and at most 100 nM.
With `COC[C@H](C)Nc1ncc2c(-c3cnn(C4CN(CC(F)(F)F)C4)c3)cc([C@H]3CC[C@H](O)CC3)n2n1` [Compound 302], the figures for the IC50 in assay [1] and in assay [2] were 100 to 1000 nM and at most 100 nM, respectively.
For `C[C@@H](CC(F)(F)F)Nc1ncc2c(-c3cnn([C@@H]4CCOC4)c3)cc([C@H]3CC[C@H](O)CC3)n2n1` [Compound 289], in that order: at most 100 nM and at most 100 nM.
For `COC[C@H](C)Nc1ncc2c(-c3cnn(Cc4cncc(C)n4)c3)cc([C@H]3CC[C@H](O)CC3)n2n1` [Compound 329], in that order: 100 to 1000 nM and at most 100 nM.
On to `COC[C@H](C)Nc1ncc2c(-c3cnn(Cc4ccc(S(C)(=O)=O)cc4)c3)cc([C@H]3CC[C@H](O)CC3)n2n1` [Compound 314], for which the IC50 in assay [1] and in assay [2] was at most 100 nM throughout.
As for `C[C@@H](CC(F)(F)F)Nc1ncc2c(-c3cnn(CCS(C)(=O)=O)c3)cc([C@H]3CC[C@H](O)CC3)n2n1` [Compound 288], the IC50 in assay [1] and in assay [2] was at most 100 nM in each case.
In the case of `CNS(=O)(=O)c1cncc(-c2cc([C@H]3CC[C@H](O)CC3)n3nc(N[C@@H](C)COC(F)F)ncc23)c1` [Compound 275], the half-inhibitory concentration (IC50) was 1000 to 10000 nM in assay [1] and at most 100 nM in assay [2].
For the molecule `COC[C@H](C)Nc1ncc2c(-c3ccnc(OC4CCCN(C)C4)c3)cc([C@H]3CC[C@H](O)CC3)n2n1` (some centres unmarked) [Compound 341], the half-inhibitory concentration (IC50) was 100 to 1000 nM in assay [1] and at most 100 nM in assay [2].
For `COC[C@H](C)Nc1ncc2c(-c3cnn(C(C)(C)C(=O)O)c3)cc([C@H]3CC[C@H](O)CC3)n2n1` [Compound 284], in that order: 1000 to 10000 nM and at most 100 nM.
Take `COC[C@H](C)Nc1ncc2c(-c3cnn(C(C)(C)C(=O)N4C[C@@H](C)O[C@@H](C)C4)c3)cc([C@H]3CC[C@H](O)CC3)n2n1` [Compound 320]: the IC50 in assay [1] is 1000 to 10000 nM; in assay [2] it was at most 100 nM.
`COC[C@H](C)Nc1ncc2c(-c3ccc(S(C)(=O)=O)nc3)cc([C@H]3CC[C@H](O)CC3)n2n1` [Compound 279]: the half-inhibitory concentration (IC50) in assay [1] is 100 to 1000 nM; in assay [2], at most 100 nM.
Turning to `COC[C@H](C)Nc1ncc2c(-c3cnn(Cc4cnccn4)c3)cc([C@H]3CC[C@H](O)CC3)n2n1` [Compound 305], the IC50 in assay [1] is 100 to 1000 nM; in assay [2], at most 100 nM.
On the same counts, the results for `COC[C@H](C)Nc1ncc2c(-c3cnn(Cc4cc(C)nn4C)c3)cc([C@H]3CC[C@H](O)CC3)n2n1` [Compound 333] are 100 to 1000 nM and at most 100 nM.
`Cc1cc(-c2cc([C@H]3CC[C@H](O)CC3)n3nc(N[C@@H](C)C(F)F)ncc23)ccn1` [Compound 309]: the IC50 in assay [1] was 100 to 1000 nM; in assay [2], at most 100 nM.
On the same counts, the results for `COCCOc1cc(-c2cc([C@H]3CC[C@H](O)CC3)n3nc(N[C@@H](C)COC)ncc23)ccn1` [Compound 345] are 1000 to 10000 nM and at most 100 nM.
As to `CNC(=O)c1ncc(-c2cc([C@H]3CC[C@H](O)CC3)n3nc(N[C@@H](C)COC)ncc23)cn1` [Compound 334], the concentration for half-maximal inhibition (IC50) in assay [1] is 1000 to 10000 nM; in assay [2], at most 100 nM.
Turning to `CCCCC[C@H](C)Nc1ncc2c(N3CCC(C(=O)O)CC3)cc([C@H]3CC[C@H](O)CC3)n2n1` [Compound 117], the IC50 in assay [1] lay in the range of 1000 to 10000 nM; in assay [2] it was 100 to 1000 nM.
For `COC[C@H](C)Nc1ncc2c(-c3ccnc(NC(C)C)c3)cc([C@H]3CC[C@H](O)CC3)n2n1` [Compound 337], in that order: 100 to 1000 nM and at most 100 nM.
For `COCC(C)Nc1ncc2c(-c3cnn(Cc4ccc(=O)n(C)c4)c3)cc(C3CCC(O)CC3)n2n1` (centres unmarked) [Compound 322], the IC50 in assay [1] is 100 to 1000 nM; in assay [2] it was at most 100 nM.
With `Cc1cc(-c2cc([C@H]3CC[C@H](O)CC3)n3nc(N[C@@H](C)COC(F)F)ncc23)ccn1` [Compound 313], the IC50 in assay [1] was 100 to 1000 nM; in assay [2], at most 100 nM.
On the same counts, the results for `COC[C@H](C)Nc1ncc2c(-c3cnn(C(C)(C)C(=O)N4C[C@H](C)O[C@@H](C)C4)c3)cc([C@H]3CC[C@H](O)CC3)n2n1` [Compound 328] are 1000 to 10000 nM and at most 100 nM.
On the same counts, the results for `COC[C@H](C)Nc1ncc2c(-c3ccnc(N4CCCC4)c3)cc([C@H]3CC[C@H](O)CC3)n2n1` [Compound 339] are 100 to 1000 nM and at most 100 nM.
